Values quoted from earlier work in patent US4898737A, “Controlled absorption pharmaceutical composition” (Elan Corporation plc, priority 1983, dated 1990).

Which results are given for CC(C)NCC(O)COc1cccc2ccccc12 (stereo not drawn) [propranolol, 1-(isopropylamino)-3-(1-naphthyloxy)-2-propanol]?
time of peak plasma concentrations (after a single oral dose): one to two; metabolism (oral): extensively and rapidly metabolised; urinary excretion (oral): excreted in the urine as free and conjugated propranolol and as metabolites
